# Test results from patent US8518859B2, “Method for increasing yield of staple food crop” (National University Corporation Shizuoka University, priority 2009, dated 2013).
# Marks after values point to notes of the source that are not given here.
# Columns and labels:
# [1] = tested on: rice (Nipponbare); assay: Yield-increasing effect in soil culture of rice 1 (Example 2); type: in vivo, rice (genus Oryza); conditions: AHX 50 μM
# Description: Soil culture was carried out for 97 days starting in July in the same manner as in Example 1, except that seedlings of rice (Nipponbare) were transplanted one by one to a soil (in 1/5000-a pot) which contains a fertilizer containing N (1,440 mg), P2O5 (12 mg), K2O (760 mg) and CaO (806 mg).
# Water and nutrients were supplied once a day. As the medium used for the addition, the culture medium for the AHX (50 μM)-treated section and the culture medium for the control section were respectively used in the AHX (50 μM)-treated section and the control section. It is noted here that, unlike the case of hydroponic culture, the culture medium was not replaced.
# The cereal crops obtained by the soil culture were dried for 2 weeks and the following items were measured in the same manner as in Example 1: brown rice mass; water content, carbon content and nitrogen content of brown rice; size and number of brown rice (per plant); leaf length; culm length; panicle length; number of panicles; tiller number; and mass of the above-ground part (n=7).
# [2] = tested on: wheat (Nourin 61); assay: Yield-increasing effect in wheat (Example 6); type: in vivo, wheat (genus Triticum); conditions: 6 pots
# Description: In 1/2000-a pots having crushed gravel in the bottom, 6 kg of a paddy-rice nursery soil was placed and, as a base fertilizer, 5-7-6 (N—P—K) was added in an amount of 4 g. The soil was sufficiently watered and 3 days later, 10 grains of wheat (Nourin 61) were sown in each pot. The wheat was cultured providing 300 ml of water once a week, and the seedlings were thinned 2 weeks after germination to leave 5 seedlings showing good growth. In the subsequent two weeks, a total of 6 pots were each treated once a week with AHX (5 μM), AHX (50 μM), AHX (1 mM), ICA (2 μM) or water only (control). Then, after culturing for 9 weeks providing 300 ml of just water once a week, the culture was continued for another 12 weeks by changing the amount of water to 500 ml once a week. It is noted here that, 2 weeks after the change was made in the amount of water, 0.75 g of ammonium sulfate was added to each pot as a panicle fertilizer. Further, the AHX (1 mM) treatment pots were subjected to an additional treatment with AHX (1 mM) for 2 weeks after the addition of the panicle fertilizer. The culture was carried out from Oct. 26, 2009 to May 12, 2010. After the completion of the culture, drying was performed for two weeks and the total wheat yield (g/5 plants) was measured.
# [3] = tested on: seed potato (cultivar: "Danshaku"); assay: Yield-increasing effect in potato (Example 5); type: in vivo, potato (genus Solanum)
# Description: A seed potato (cultivar: “Danshaku”) was cut into pieces of 30 g to 35 g in weight and they were each allowed to take roots in soil (in 1/2000-a pot) which contains a fertilizer containing N (960 mg), P2O5 (480 mg), K2O (640 mg) and MgO (320 mg). After 2-weeks of cultivation with tap water (after an above-ground part appeared), 2.74 mg (20 μmol) of AHX was dissolved in tap water and added to the pot every week. The Danshaku potato was cultured in an outdoor environment over a period of 12 weeks starting in January. The control section was treated with tap water only.
# After 12 weeks, the Danshaku potato was harvested to measure the tuber mass (for the whole potato and a group consisting of potatoes having a weight of not less than 20 g that were extracted), the length and mass of the above-ground part and the leaf length (n=5).
# [4] = tested on: Rice (cultivar: "Nipponbare"); assay: Yield-increasing effect in hydroponic culture of rice (Example 1); type: in vivo, rice (genus Oryza)
# Description: Rice (cultivar: “Nipponbare”) was used in the test. Seeds thereof were sown in a nursery box, and after 20 days of cultivation, the resulting rice seedlings were transplanted one by one to a pot (1/5000-a) and cultivated for 1 week with tap water.
# After the cultivation with tap water, the thus obtained rice plants were cultured in a culture medium added with the AHX (50 μM), which was synthesized in the above, in an outdoor environment over a period of 97 days starting in July.
# During the periods from the 8th day to the 32nd day and the period from the 73rd day to the 97th day after the transplantation, the culture was carried out in a medium having a half concentration of the undiluted culture medium, and during the period from the 33rd day to the 72nd day, the undiluted culture medium was used.
# Water and nutrients were supplied once every 3 days. As the medium used for the addition, the culture medium for the AHX-treated section and the culture medium for the control section were respectively used in the AHX-treated section and the control section. It is noted here, however, that the culture medium was replaced once a week in the case of hydroponic culture.
# The cereal crops obtained by the culture were dried for 2 weeks and the following items were measured: brown rice mass; water content, carbon content and nitrogen content of brown rice; size and number of brown rice (per plant); leaf length; culm length; panicle length; number of panicles; tiller number; and mass of the above-ground and underground parts. Here, the size of brown rice means the mass per grain determined from the brown rice mass (g/100 brown rice grains) and the number of brown rice refers to a value obtained by dividing the brown rice weight (g/plant) by the brown rice weight (g/100 brown rice grains) (number of plants n=6).
# [5] = tested on: rice (Nipponbare); assay: Yield-increasing effect in soil culture of rice 2 (Example 3); type: in vivo, rice (genus Oryza); conditions: for Brown rice weight (g/plant): soil culture Jun. 10 to Sep. 29, n=6; for Brown rice weight (g/100 brown rice grains) / Culm length (cm) / Mass of the above-ground part (g/plant) / Number of panicles (/plant) / Panicle length (cm): n=6; for Brown rice size: mass per grain
# Description: Soil culture was carried out from Jun. 10, 2009 to Sep. 29, 2009 in the same manner as in Example 1, except that seedlings of rice (Nipponbare) obtained by a 30-day cultivation were transplanted one by one to a soil (in 1/5000-a pot) which contains a fertilizer containing N (1,440 mg), P2O5 (12 mg), K2O (760 mg) and CaO (806 mg).
# Water and nutrients were supplied once a day. As the medium used for the addition, the culture medium for the AHX (5 μM)-treated section, the culture medium for the ICA (2 μM)-treated section and the culture medium the control section were respectively used in the AHX (5 μM)-treated section, the ICA (2 μM)-treated section and the control section. It is noted here that, unlike the case of hydroponic culture, the culture medium was not replaced.
# (§1) The cereal crops obtained by the soil culture were dried for 2 weeks and the following items were measured: brown rice mass; water content of brown rice; size and number of brown rice (per plant); panicle length; culm length; number of panicles; and mass of the above-ground part (n=6).
# [6] = tested on: Rice (cultivar: "Nipponbare"); assay: Yield-increasing effect in soil culture of rice 3, treatment before planting (Example 4); type: in vivo, rice (genus Oryza)
# Description: Rice (cultivar: “Nipponbare”) was used in the test. Seeds thereof were sown in a nursery box, and after 16 days of cultivation, the resulting rice seedlings were transplanted to a pot (1/5000-a) and hydroponically cultured in a culture medium added with the AHX (1 mM) synthesized in the above for 2 weeks before settled-planting.
# After the above-described hydroponic culture, the resulting seedlings were settled-planted in soil (in 1/5000-a pot) which contains a fertilizer containing N (1,440 mg), P2O5 (12 mg), K2O (760 mg) and CaO (806 mg). and soil-cultured from Jun. 10, 2009 to Sep. 29, 2009 in the same manner as in Example 1. During the soil culture period, no treatment with AHX was performed, and water and nutrients were supplied once per day. It is noted here that the culture medium was not replaced.
# as §1
# [7] = 20 μmol AHX per pot every week, 12 weeks, n=5
# [8] = AHX 50 μM, hydroponic culture 97 days, n=6
# [9] = 1 mM-treatment before planting, soil culture, n=6
compound,measurement,setting,value
"O=c1[nH]nnc2nc[nH]c12 [AHX, 2-azahypoxanthine]",Number of brown rice (/plant),[1]; soil culture 97 days,1864 /plant
same,Brown rice weight (g/100 brown rice grains),"[1]; soil culture 97 days, n=7",2.28 g/100 brown rice grains
same,Brown rice weight (g/plant),"[1]; soil culture 97 days, n=7",42.5 * g/plant
same,Culm length (cm),"[1]; soil culture 97 days, n=7",70.0 cm
same,Leaf length (cm),"[1]; soil culture 97 days, n=7",76.5 cm
same,Mass of the above-ground part (g/plant),"[1]; soil culture 97 days, n=7",122 *^ g/plant
same,Number of panicles (/plant),"[1]; soil culture 97 days, n=7",24.5 /plant
same,Panicle length (cm),"[1]; soil culture 97 days, n=7",21.1 cm
same,Tiller number (/plant),"[1]; soil culture 97 days, n=7",26.2 /plant
same,Brown rice size,"[1]; soil culture 97 days, mass per grain",22.8 mg
same,Increase of brown rice weight per plant,"[1]; soil culture, vs control",about 10%
same,Seed Yield (g/5 plants),"[2]; 5 μM, once a week for two weeks, soil pots",44.66 g/5 plants
same,Seed Yield (g/5 plants),"[2]; 50 μM, once a week for two weeks, soil pots",45.68 g/5 plants
same,Seed Yield (g/5 plants),"[2]; 1 mM, once a week for two weeks plus additional 2 weeks after panicle fertilizer",46.79 g/5 plants
same,Leaf length (cm),[3]; [7],7 cm
same,Length of the above-ground part (cm),[3]; [7],24 cm
same,Mass of the above-ground part (g/plant),[3]; [7],30 g/plant
same,Total mass (g · potatoes of not less than 20 g/plant),[3]; [7],85 * g · potatoes of not less than 20 g/plant
same,Total mass (g/plant) of tubers,"[3]; 2.74 mg (20 μmol) AHX per pot every week, 12 weeks, soil, n=5",95 * g/plant
same,Increase of total mass of potatoes,"[3]; treated with AHX for 12 weeks, vs control",about 19%
same,"Increase of mass, only potatoes of not less than 20 g","[3]; treated with AHX for 12 weeks, vs control section",about 40%
same,Brown rice weight (g/plant),"[4]; AHX 50 μM in culture medium, hydroponic culture 97 days, n=6",34.6 * g/plant
same,Number of brown rice (/plant),"[4]; AHX 50 μM, hydroponic culture 97 days",1544 /plant
same,Brown rice weight (g/100 brown rice grains),[4]; [8],2.24 * g/100 brown rice grains
same,Culm length (cm),[4]; [8],60.7 cm
same,Leaf length (cm),[4]; [8],72.2 * cm
same,Mass of the above-ground part (g/plant),[4]; [8],103 *^ g/plant
same,Mass of underground part (g/plant),[4]; [8],8.56 g/plant
same,Number of panicles (/plant),[4]; [8],30.8 * /plant
same,Panicle length (cm),[4]; [8],21.4 * cm
same,Tiller number (/plant),[4]; [8],25.1 /plant
same,Brown rice size,"[4]; AHX 50 μM, hydroponic culture 97 days, mass per grain",22.4 mg
same,Increase of brown rice weight per plant,"[4]; AHX 50 μM, hydroponic culture, vs control",about 6%
same,Number of brown rice (/plant),"[5]; 5 μM, soil culture",2086 /plant
same,Brown rice weight (g/plant),[5]; 5 μM,46.3 * g/plant
same,Brown rice weight (g/100 brown rice grains),"[5]; 5 μM, soil culture",2.22 g/100 brown rice grains
same,Culm length (cm),"[5]; 5 μM, soil culture",89.8 cm
same,Mass of the above-ground part (g/plant),"[5]; 5 μM, soil culture",150 g/plant
same,Number of panicles (/plant),"[5]; 5 μM, soil culture",30.8 /plant
same,Panicle length (cm),"[5]; 5 μM, soil culture",20.8 cm
same,Increase of brown rice weight per plant,"[5]; 5 μM, soil culture, vs control",about 25%
same,Brown rice size,"[5]; 5 μM, soil culture",22.2 mg
same,Number of brown rice (/plant),"[6]; 1 mM-treatment before planting, soil culture",2027 /plant
same,Brown rice weight (g/100 brown rice grains),[6]; [9],2.15 g/100 brown rice grains
same,Culm length (cm),[6]; [9],86 cm
same,Mass of the above-ground part (g/plant),[6]; [9],154 *^ g/plant
same,Number of panicles (/plant),[6]; [9],33 /plant
same,Panicle length (cm),[6]; [9],21.1 cm
same,Brown rice size,"[6]; 1 mM-treatment before planting, soil culture, mass per grain",21.5 mg
same,Increase of brown rice weight per plant,"[6]; 1 mM-treatment before planting, vs control",about 18%
same,Brown rice weight (g/plant),"[6]; 1 mM-treatment for 2 weeks before planting, then soil culture without AHX, n=6",43.6 * g/plant
"NC(=O)c1c[nH]cn1 [ICA, imidazole-4-carboxamide]",Seed Yield (g/5 plants),"[2]; 2 μM, once a week for two weeks, soil pots",47.99 g/5 plants
same,Number of brown rice (/plant),"[5]; 2 μM, soil culture",2104 /plant
same,Brown rice weight (g/plant),[5]; 2 μM,46.5 * g/plant
same,Brown rice weight (g/100 brown rice grains),"[5]; 2 μM, soil culture",2.21 g/100 brown rice grains
same,Culm length (cm),"[5]; 2 μM, soil culture",87.2 cm
same,Mass of the above-ground part (g/plant),"[5]; 2 μM, soil culture",152 g/plant
same,Number of panicles (/plant),"[5]; 2 μM, soil culture",30.5 /plant
same,Panicle length (cm),"[5]; 2 μM, soil culture",22.1 cm
same,Increase of grain weight per plant,"[5]; 2 μM, soil culture, vs control",about 26%
same,Brown rice size,"[5]; 2 μM, soil culture",22.1 mg
